Measured values from ChEMBL document CHEMBL4418283, “Fluorinated lysyl oxidase-like 2 inhibitors and uses thereof” (2017).
The source made the active and inactive calls. No cut-off for these calls is given here.

Columns and labels:
Mus musculus [1] = assay: Antifibrotic activity in C57BL/6 mouse model of bleomycin-induced lung fibrosis assessed as reduction in cross linked collagen level in lung at 60 mg/kg, po treated 7 to 14 days after bleomycin injection and measured after 14 to 28 days by Picro-Sirius staining based assay; type: functional, organism-based
Mus musculus [2] = assay: Antifibrotic activity in C57BL/6 mouse model of bleomycin-induced lung fibrosis assessed as reduction in collagen level in lung at 60 mg/kg, po treated 7 to 14 days after bleomycin injection and measured after 14 to 28 days by hydroxyproline assay; type: functional, organism-based
Mus musculus [3] = assay: Antifibrotic activity in C57BL/6 mouse model of bleomycin-induced lung fibrosis assessed as reduction in collagen level in lung at 60 mg/kg, po pre-treated 1 hr to 1 day before bleomycin injection and measured after 14 to 28 days by hydroxyproline assay; type: functional, organism-based
Mus musculus [4] = assay: Antifibrotic activity in C57BL/6 mouse model of bleomycin-induced lung fibrosis assessed as reduction in cross linked collagen level in lung at 60 mg/kg, po pre-treated 1 hr to 1 day before bleomycin injection and measured after 14 to 28 days by Picro-Sirius staining based assay; type: functional, organism-based
Mus musculus [5] = assay: Antifibrotic activity in C57BL/6 mouse model of bleomycin-induced lung fibrosis assessed as reduction in cross linked collagen level in lung at 60 mg/kg, po treated 7 to 14 days after bleomycin injection and measured after 14 to 28 days by Masson's trichrome staining based assay; type: functional, organism-based
Mus musculus [6] = assay: Antifibrotic activity in C57BL/6 mouse model of bleomycin-induced lung fibrosis assessed as reduction in alpha smooth muscle actin level in lung at 60 mg/kg, po pre-treated 1 hr to 1 day before bleomycin injection and measured after 14 to 28 days by immunohistochemistry analysis; type: functional, organism-based
Mus musculus [7] = assay: Antifibrotic activity in C57BL/6 mouse model of bleomycin-induced lung fibrosis assessed as reduction in hydroxyproline in lung homogenates at 60 mg/kg, po treated 7 to 14 days after bleomycin injection and measured after 14 to 28 days by chloramine T and Erlich's solution based assay; type: functional, organism-based
Mus musculus [8] = assay: Antifibrotic activity in C57BL/6 mouse model of bleomycin-induced lung fibrosis assessed as reduction in cross linked collagen level in lung at 60 mg/kg, po pre-treated 1 hr to 1 day before bleomycin injection and measured after 14 to 28 days by Masson's trichrome staining based assay; type: functional, organism-based
Mus musculus [9] = assay: Antifibrotic activity in C57BL/6 mouse model of bleomycin-induced lung fibrosis assessed as reduction in hydroxyproline in lung homogenates at 60 mg/kg, po pre-treated 1 hr to 1 day before bleomycin injection and measured after 14 to 28 days by chloramine T and Erlich's solution based assay; type: functional, organism-based
Mus musculus [10] = assay: Antifibrotic activity in C57BL/6 mouse model of bleomycin-induced lung fibrosis assessed as reduction in alpha smooth muscle actin level in lung at 60 mg/kg, po treated 7 to 14 days after bleomycin injection and measured after 14 to 28 days by immunohistochemistry analysis; type: functional, organism-based
Mus musculus [11] = assay: Antifibrotic activity in COL4A3 deficient mouse A1port model of kidney fibrosis assessed as effect on MMP12 gene expression at 30 mg/kg, po dosed during 2 to 3 days of age and measured at 7 to 9 weeks of age by RT-PCR analysis; type: functional, organism-based
Mus musculus [12] = assay: Antifibrotic activity in COL4A3 deficient mouse A1port model of kidney fibrosis assessed as effect on albinuria level at 30 mg/kg, po dosed during 2 to 3 days of age and measured at 7 to 9 weeks of age; type: functional, organism-based
Mus musculus [13] = assay: Antifibrotic activity in COL4A3 deficient mouse A1port model of kidney fibrosis assessed as effect on TGFbeta1 gene expression at 30 mg/kg, po dosed during 2 to 3 days of age and measured at 7 to 9 weeks of age by RT-PCR analysis; type: functional, organism-based
Mus musculus [14] = assay: Antifibrotic activity in COL4A3 deficient mouse A1port model of kidney fibrosis assessed as effect on CD45 protein expression at 30 mg/kg, po dosed during 2 to 3 days of age and measured at 7 to 9 weeks of age by immunohistochemical analysis; type: functional, organism-based
Mus musculus [15] = assay: Antifibrotic activity in COL4A3 deficient mouse A1port model of kidney fibrosis assessed as effect on MMP2 gene expression at 30 mg/kg, po dosed during 2 to 3 days of age and measured at 7 to 9 weeks of age by RT-PCR analysis; type: functional, organism-based
Mus musculus [16] = assay: Antifibrotic activity in COL4A3 deficient mouse A1port model of kidney fibrosis assessed as effect on WT1 protein expression at 30 mg/kg, po dosed during 2 to 3 days of age and measured at 7 to 9 weeks of age by immunohistochemical analysis; type: functional, organism-based
Mus musculus [17] = assay: Antifibrotic activity in COL4A3 deficient mouse A1port model of kidney fibrosis assessed as effect on MMP10 gene expression at 30 mg/kg, po dosed during 2 to 3 days of age and measured at 7 to 9 weeks of age by RT-PCR analysis; type: functional, organism-based
Mus musculus [18] = assay: Antifibrotic activity in COL4A3 deficient mouse A1port model of kidney fibrosis assessed as effect on IL6 gene expression at 30 mg/kg, po dosed during 2 to 3 days of age and measured at 7 to 9 weeks of age by RT-PCR analysis; type: functional, organism-based
Mus musculus [19] = assay: Antifibrotic activity in COL4A3 deficient mouse A1port model of kidney fibrosis assessed as effect on collagen-1 protein expression at 30 mg/kg, po dosed during 2 to 3 days of age and measured at 7 to 9 weeks of age by immunohistochemical analysis; type: functional, organism-based
Mus musculus [20] = assay: Antifibrotic activity in COL4A3 deficient mouse A1port model of kidney fibrosis assessed as effect on MMP9 gene expression at 30 mg/kg, po dosed during 2 to 3 days of age and measured at 7 to 9 weeks of age by RT-PCR analysis; type: functional, organism-based
Mus musculus [21] = assay: Antifibrotic activity in COL4A3 deficient mouse A1port model of kidney fibrosis assessed as effect on laminin a5 protein expression at 30 mg/kg, po dosed during 2 to 3 days of age and measured at 7 to 9 weeks of age by immunohistochemical analysis; type: functional, organism-based
Mus musculus [22] = assay: Antifibrotic activity in COL4A3 deficient mouse A1port model of kidney fibrosis assessed as effect on smooth muscle actin protein expression at 30 mg/kg, po dosed during 2 to 3 days of age and measured at 7 to 9 weeks of age by immunohistochemical analysis; type: functional, organism-based
Mus musculus [23] = assay: Antifibrotic activity in COL4A3 deficient mouse A1port model of kidney fibrosis assessed as effect on fibronectin protein expression at 30 mg/kg, po dosed during 2 to 3 days of age and measured at 7 to 9 weeks of age by immunohistochemical analysis; type: functional, organism-based
Mus musculus [24] = assay: Antifibrotic activity in COL4A3 deficient mouse A1port model of kidney fibrosis assessed as effect on integrin alpha8 protein expression at 30 mg/kg, po dosed during 2 to 3 days of age and measured at 7 to 9 weeks of age by immunohistochemical analysis; type: functional, organism-based
Mus musculus [25] = assay: Antifibrotic activity in COL4A3 deficient mouse A1port model of kidney fibrosis assessed as effect on MCP1 gene expression at 30 mg/kg, po dosed during 2 to 3 days of age and measured at 7 to 9 weeks of age by RT-PCR analysis; type: functional, organism-based
Mus musculus [26] = assay: Antifibrotic activity in COL4A3 deficient mouse A1port model of kidney fibrosis assessed as effect on CTGF gene expression at 30 mg/kg, po dosed during 2 to 3 days of age and measured at 7 to 9 weeks of age by RT-PCR analysis; type: functional, organism-based
Mus musculus [27] = assay: Antifibrotic activity in COL4A3 deficient mouse A1port model of kidney fibrosis assessed as effect on collagen 1 protein expression at 30 mg/kg, po dosed during 2 to 3 days of age and measured at 7 to 9 weeks of age by immunohistochemical analysis; type: functional, organism-based
Mus musculus [28] = assay: Antifibrotic activity in COL4A3 deficient mouse A1port model of kidney fibrosis assessed as effect on BUN level at 30 mg/kg, po dosed during 2 to 3 days of age and measured at 7 to 9 weeks of age; type: functional, organism-based
Lysyl oxidase homolog 2 = biological target: T1, Lysyl oxidase homolog 2 (Homo sapiens, UniProt Q9Y4K0); assay: Inhibition of human LOXL2 expressed in CHO cells assessed as reduction in amine oxidase activity incubated for 2 hrs by Amplex red based fluorescence assay; type: cell-based
T1 sequence (Q9Y4K0 whole entry): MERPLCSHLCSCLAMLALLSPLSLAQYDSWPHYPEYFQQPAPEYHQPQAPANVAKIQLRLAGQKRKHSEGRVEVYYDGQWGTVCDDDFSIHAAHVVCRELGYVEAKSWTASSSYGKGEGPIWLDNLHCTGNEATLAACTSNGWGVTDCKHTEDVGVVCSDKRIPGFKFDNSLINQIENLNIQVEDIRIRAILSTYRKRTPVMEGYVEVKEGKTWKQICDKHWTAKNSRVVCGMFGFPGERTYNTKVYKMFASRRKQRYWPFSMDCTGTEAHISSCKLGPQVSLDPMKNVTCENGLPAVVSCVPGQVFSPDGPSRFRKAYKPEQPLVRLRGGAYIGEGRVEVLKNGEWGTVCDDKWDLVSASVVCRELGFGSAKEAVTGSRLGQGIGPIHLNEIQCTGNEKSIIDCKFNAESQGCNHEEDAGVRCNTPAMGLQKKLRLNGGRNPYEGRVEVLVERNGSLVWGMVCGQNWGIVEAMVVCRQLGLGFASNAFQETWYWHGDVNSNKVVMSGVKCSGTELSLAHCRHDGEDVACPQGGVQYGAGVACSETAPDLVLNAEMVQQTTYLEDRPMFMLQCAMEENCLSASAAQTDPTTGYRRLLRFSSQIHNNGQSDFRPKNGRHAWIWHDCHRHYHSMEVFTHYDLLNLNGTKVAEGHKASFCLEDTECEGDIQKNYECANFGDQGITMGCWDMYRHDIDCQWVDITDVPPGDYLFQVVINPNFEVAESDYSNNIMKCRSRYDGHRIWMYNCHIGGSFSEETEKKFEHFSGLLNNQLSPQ

SMILES	Activity (Mus musculus [1])	Activity (Mus musculus [2])	Activity (Mus musculus [3])	Activity (Mus musculus [4])	Activity (Mus musculus [5])	Activity (Mus musculus [6])	Activity (Mus musculus [7])	Activity (Mus musculus [8])	Activity (Mus musculus [9])	Activity (Mus musculus [10])	other results
NCc1cc(Oc2cccc(C(=O)N3C[C@H](O)[C@@H](F)C3)c2)nc(C(F)(F)F)c1 (relative stereo)	Active	Active	Active	Active	Active	Active	Active	Active	Active	Active	–
NCc1cc(Oc2cccc(C(=O)Nc3ccccc3)c2)nc(C(F)(F)F)c1	–	–	Active	Active	–	Active	–	Active	Active	–	–
NCc1cc(Oc2cccc(C(=O)N3C[C@@H](O)[C@H](F)C3)c2)nc(C(F)(F)F)c1	Active	Active	Active	Active	Active	Active	Active	Active	Active	Active	Activity (Mus musculus [11]): Active; Activity (Mus musculus [12]): Active; Activity (Mus musculus [13]): Active; Activity (Mus musculus [14]): Active; Activity (Mus musculus [15]): Active; Activity (Mus musculus [16]): Active; Activity (Mus musculus [17]): Active; Activity (Mus musculus [18]): Active; Activity (Mus musculus [19]): Active; Activity (Mus musculus [20]): Active; Activity (Mus musculus [21]): Active; Activity (Mus musculus [22]): Active; Activity (Mus musculus [23]): Active; Activity (Mus musculus [24]): Active; Activity (Mus musculus [25]): Active; Activity (Mus musculus [26]): Active; Activity (Mus musculus [27]): Active; Activity (Mus musculus [28]): Active
CS(=O)(=O)CCNC(=O)c1cccc(Oc2cc(CN)cc(C(F)(F)F)n2)c1	–	–	Active	Active	–	Active	–	Active	Active	–	–
NCc1cc(Oc2cccc(C(=O)NCCn3cnnn3)c2)nc(C(F)(F)F)c1	–	–	Active	Active	–	Active	–	Active	Active	–	–
NCc1cc(Oc2cccc(C(=O)N3C[C@H](O)[C@@H](F)C3)c2)nc(C(F)(F)F)c1 (racemic)	Active	Active	Active	Active	Active	Active	Active	Active	Active	Active	–
NCc1cc(O[C@@H]2CCCN(C(=O)Nc3ccccc3)C2)nc(C(F)(F)F)c1	–	–	–	–	–	–	–	–	–	–	IC50 (Lysyl oxidase homolog 2): 300 to 1000 nM
CC(C)(C)OC(=O)N1CCN(C(=O)Cn2ccc3c(Oc4cc(CN)cc(C(F)(F)F)n4)cccc32)CC1	–	–	–	–	–	–	–	–	–	–	IC50 (Lysyl oxidase homolog 2): < 300 nM
NCc1cc(Oc2cccc3c2CCC(=O)N3)nc(C(F)(F)F)c1	–	–	Active	Active	–	Active	–	Active	Active	–	–
